Experimental data published in ChEMBL document CHEMBL1152970, “Optimization of a series of 2,4-diaminopyridines as neuropeptide Y Y1 receptor antagonists with reduced hERG activity” (Bioorg Med Chem Lett, 2009).

Tests used:
physchem = conditions: octanol/water, pH 7.4
Brain [1] = assay: Drug level in C57BL/6 mouse brain at 30 mg/kg, ip after 30 mins; type: ADME, organism-based, C57BL6; design: dose 30 mg/kg, route intraperitoneal; conditions: in vivo, 0.5 h
Brain [2] = assay: Drug level in mdr1a deficient CF-1 mouse brain at 30 mg/kg, ip after 30 mins; type: ADME, organism-based; design: dose 30 mg/kg, route intraperitoneal; conditions: in vivo, 0.5 h
[3] = Plasma concentration in C57BL/6 mouse plasma at 30 mg/kg, ip after 30 mins; type: ADME, organism-based, C57BL6; design: dose 30 mg/kg, route intraperitoneal
[4] = Ratio of drug level in brain to plasma in C57BL/6 mouse at 30 mg/kg, ip after 30 mins; type: ADME, organism-based, C57BL6; design: dose 30 mg/kg, route intraperitoneal
[5] = Ratio of drug level in brain to plasma in mdr1a deficient CF-1 mouse at 30 mg/kg, ip after 30 mins; type: ADME, organism-based; design: dose 30 mg/kg, route intraperitoneal; conditions: CF-1 (mdr1a deficient)
[6] = Plasma concentration in mdr1a deficient CF-1 mouse at 30 mg/kg, ip after 30 mins; type: ADME, organism-based; design: dose 30 mg/kg, route intraperitoneal; conditions: CF-1 (mdr1a deficient)

| SMILES | logD (physchem) | other results |
| --- | --- | --- |
| CCOC(=O)CNc1cc(N2CCOCC2)cc(CCc2nc(C)c(CC)o2)n1 | 2.8 | – |
| CCc1sc(CCc2cc(N3CCOCC3)cc(NC(C)c3cc(Cl)cc(NC(=O)OC(C)C)c3)n2)nc1C (stereo unspecified) | > 4 | – |
| CCc1oc(CCc2cc(N3CCOCC3)cc(NC(C)C)n2)nc1C | 2.4 | – |
| CCc1oc(CCc2cc(N3CCOCC3)cc(NC(C)=O)n2)nc1C | 2.3 | – |
| CCCNc1cc(N2CCOCC2)cc(CCc2nc(C)c(CC)o2)n1 | 2.5 | – |
| CCc1oc(CCc2cc(N3CCOCC3)cc(NC)n2)nc1C | 1.7 | – |
| CCc1oc(CCc2cc(N3CCOCC3)cc(NCC(F)(F)F)n2)nc1C | 3.5 | – |
| CCNc1cc(N2CCOCC2)cc(CCc2nc(C)c(CC)o2)n1 | 2.2 | – |

More lines, main results first:

| logD (physchem) | SMILES | other results |
| --- | --- | --- |
| 1 | Cc1nc(SCc2cc(N3CCOCC3)cc(NCC#N)n2)n(C)c1C | – |
| 2.1 | Cc1nc(OCc2cc(N3CCOCC3)cc(NCC#N)n2)oc1C | – |
| 2 | CCc1oc(CCc2cc(N3CCOCC3)cc(NCCC#N)n2)nc1C | – |
| 2.4 | CCc1oc(CCc2cc(N3CCOCC3)cc(NCC#N)n2)nc1C | – |
| 2 | Cc1nc(SCc2cc(N3CCOCC3)cc(NCC#N)n2)oc1C | – |
| 2.4 | Cc1nc(SCc2cc(N3CCOCC3)cc(NCC#N)n2)sc1C | Drug uptake (Brain [1]): 0.9 nmol/g; Drug uptake (Brain [2]): 4.7 nmol/g; concentration at 0.5 h [3]: 3.4 µM; Kp at 0.5 h [4]: 0.27; Kp at 0.5 h [5]: 0.9; concentration at 0.5 h [6]: 5.2 µM |
| 2.6 | CCc1oc(SCc2cc(N3CCOCC3)cc(NCC#N)n2)nc1C | – |
